Data on two compounds can be found in PMC11073913 (Archiv der Pharmazie, 2024).

Like-named read-outs stand apart in the source and are kept apart here.

Test [1] has as its system LPS-induced IL-6 production in RAW 264.7 cells. As to conditions: cells treated with 25 μM compound, LPS-activated RAW 264.7.
Test [2] relates to LPS-induced TNF-α production in RAW 264.7 cells. Particulars: cells treated with 25 μM compound, LPS-activated RAW 264.7.
In test [3] the test system is LPS-induced ROS production in RAW 264.7 cells. The test is described as follows: cells. Particulars: Mus musculus, RAW264.7, 18 h, read-out: ROS (IC50).

For `Cc1ccc(-c2cc(C(F)(F)F)nn2-c2ccc(S(N)(=O)=O)cc2)cc1` [Celecoxib, celecoxib, reference compound], the figures for the IL-6 level in test [1] and in test [1] (listed as celecoxib) were 24.64 ± 6.36 pg/mL and 24.64 pg/mL, respectively. Also, the TNF-α level was found to be 25.36 ± 6.364 pg/mL in test [2] and 25.36 pg/mL in test [2] (listed as celecoxib). Besides, the 50% inhibitory concentration (IC50) in test [3] amounted to 44.6 ± 1.18 µM.
Regarding `COc1ccc2c(c1)c(CC(=O)O)c(C)n2C(=O)c1ccc(Cl)cc1` [Indomethacin, indomethacin, reference compound], the concentration for half-maximal inhibition (IC50) in test [3] worked out at 55 ± 1.26 µM.

For orientation: IC50 means the midpoint of a concentration-inhibition curve.
